Like-named read-outs stand apart in the source and are kept apart here.
Key:
[1] = tested on: blood brain barrier (BBB) in-vitro model (endothelial cells / glial cells); test: In vitro blood brain barrier (BBB) cell culture model, HPLC of carotenoids; format: in vitro ADME, porcine brain endothelial cells, new born rat glial cells
Protocol: FIG. 5A-FIG. 5C: Schematic drawings of the in vitro blood brain barrier (BBB) cell culture system. The model consists of a monolayer of endothelial cells, forming tight junctions that are grown on a microporous membrane filter culture insert (luminal side) and glial cells seeded at the abluminal side of the filter. Low Density Lipoprotein (LDL, 100 μl 1,600 μg/ml) from a healthy volunteer is added to the luminal side. Cells are incubated for 24 hours and then samples are collected from the luminal and abluminal side and analyzed.
An in vitro model of the blood brain barrier (BBB) was used. The model consists of a monolayer of endothelial cells, obtained from primary cultures of endothelial cells established from freshly collected porcine brain forming tight junctions that are grown on a microporous membrane filter culture insert (the “Luminal side” in FIG. 6) and of a monolayer of glial cells extracted from new born rats' cortex that are seeded at the abluminal side of the filter (the “Abluminal side” in FIG. 6). Low density lipoprotein (LDL, 100 μl, 1,600 μg/ml from a healthy volunteer) was added to the luminal side. Cells were then incubated for 24 hours and thereafter samples were collected and analyzed using HPLC. The model was prepared by first seeding the glial cells on the abluminal side of a filter, a week later, the above-described endothelial cells were seeded on the luminal side of the filter and two days later LDL was added to the luminal side of the filter as indicated above.
LDL was obtained from healthy volunteers by sequential ultracentrifugation (density, 1.063 g/ml), and the concentration was determined by the Lowry method.
Using the “BBB in-vitro model” described above and schematically shown in FIG. 5A, 5B, 5C, glial and endothelial cells were incubated for 24 hours in the presence of LDL (inherently containing all-trans and 9-cis β-carotene) and then samples were collected and carotenoids were extracted and analyzed using HPLC.

[2] = Tissue carotenoids by HPLC in Tg2576 mice; format: in vivo; details: Tg2576 study, mice fed Dunaliella diet vs control diet
Description: In order to assess whether carotenoid level was higher in brain tissue of Tg2576 mice fed with the Dunaliella diet as compared to the control group, mice brain carotenoids were extracted and then measured using HPLC.

[3] = Tissue carotenoids by HPLC in 5×FAD mice; details: for Amount in brain tissues: 5×FAD mice fed Dunaliella algae diet vs regular diet, HPLC; for Accumulation in liver, fat and brain tissues: 5×FAD study, Dunaliella diet group vs control group
[4] = carotenoids in human LDL added to luminal side, 24 hours incubation, HPLC

| Crossing of the BBB (luminal to abluminal side) [1, 4] | Tissue levels (liver, fat, brain) [2] | Amount in brain tissues [3] | Accumulation in liver, fat and brain tissues [3] | Crossing of the BBB (luminal to abluminal side) [1] | SMILES |
| --- | --- | --- | --- | --- | --- |
| crossed the BBB | much higher levels | significantly higher amounts | much higher levels | – | CC1=C(/C=C/C(C)=C\C=C\C(C)=C\C=C\C=C(C)\C=C\C=C(C)\C=C\C2=C(C)CCCC2(C)C)C(C)(C)CCC1 [9-cis β Carotene, 9-cis β-carotene] |
| crossed the BBB | much higher levels | significantly higher amounts | much higher levels | – | CC1=C(/C=C/C(C)=C/C=C/C(C)=C/C=C/C=C(C)/C=C/C=C(C)/C=C/C2=C(C)CCCC2(C)C)C(C)(C)CCC1 [all-trans β Carotene, all-trans β-carotene] |
| – | – | – | – | did not cross the BBB | CC(C)=CCC/C(C)=C/C=C/C(C)=C/C=C/C(C)=C/C=C/C=C(C)/C=C/C=C(C)/C=C/C=C(\C)CCC=C(C)C [lycopene, reference compound] |

Reference: patent US20220175860A1, “DUNALIELLA ALGA PREPARATION FOR PREVENTION AND/OR TREATMENT OF A NEURODEGENERATIVE DISEASE, A DISORDER ASSOCIATED WITH PROTEIN MISFOLDING AND COGNITIVE DECLINE” (TEL HASHOMER MEDICAL RESEARCH INFRASTRUCTURE AND SERVICES …, priority 2019, published 2022)
